Measured values: patent US8754233B2, “Pyrazolylbenzothiazole derivatives and their use as therapeutic agents” (Dermira (Canada), Inc., priority 2002, dated 2014)
One block for each compound: values may come before it.

Tests used:
[1] = tested on: ConA 1° splenocytes; test: Survival of ConA 1° splenocytes (cytotoxicity by MTS staining); format: cell-based, mouse; details: ConA-stimulated splenocytes
Description: (§1) The working concentration of ConA was […]. A 20× working concentration of Concanavalin A was […] was prepared using RPMI-5. The test compounds, dimethylsulfoxide (DMSO) negative vehicle control and staurosporine positive control were diluted twenty times using RPMI-5. Ten μL each of DMSO and staurosporine were combined with 180 μl of medium containing splenocytes in the wells, and 10 μl of 50 μg/ml ConA was immediately added. Medium without ConA was added to the control wells. […] The plates were incubated at 37° C. in 5% CO2 in humidified conditions overnight (18-24 hours) for INFγ.
(MTS). The MTS solution was made fresh and under low light. The electron coupling reagent phenazine methosulfate (PMS) was added at the time of the assay. Twenty μL of MTS solution per 100 μl of tissue culture medium was added to each well. The plates were incubated 37° C. for 4 hours for unstimulated and 18-24 ConA stimulated splenocytes. The absorbance was read at 490 nm wavelength. A kit available to do this assay is “CellTiter 96® AQ Kit AQueous Kit (G5421)” by Promega.

[2] = tested on: K5P5 podocyte cell line; test: Survival assay in podocytes (PAN treatment, MTS); format: cell-based, murine; details: for % Survival: PAN treated K5P5 podocytes; for IC50: Mus musculus, PAN treated, MTS
Excerpt: The treatment of glomerular visceral epithelial cells (podocytes) with high concentrations of puromycin aminonucleoside (PAN) causes significant cytotoxic effects. An assessment of cell viability subsequent to a cytotoxic exposure can be judged qualitatively by examining changes in cell phenotype after staining with crystal violet or determined quantitatively by employing a cytotoxic assay using the soluble tetrazolium salt [3-(4,5-dimethylthiazol-2-yl)-5-(3-carboxymethoxyphenyl)-2-(4-sulfophenyl)-2H-tetrazolium, inner salt] (MTS). Such a system can be used to evaluate the survival effects that ILK compounds have on podocytes following exposure to PAN or other cytotoxic agents.
The cell line employed for the podocyte model was the murine K5P5. […] The cells should be propagate to a maximum of 20 passages.
The flasks were incubated at 37° C., 5% CO2 for 3 days.
The flasks were incubated at 37° C., 5% CO2 for 4 days.
Cells were trypsinized (0.25%), collected from the tissue culture flasks centrifuged, resuspended and counted. […] The flasks were incubated at 37° C., 5% CO2 for 3 days.
10 μl of this 10× compound solution is added to the 80 μl of cells already present in the 96-well plates. For cell undergoing cytotoxic treatment, puromycin aminonuceloside (PAN, Sigma P7130) was added at a 10× concentration to 90 μl of cells. The positive control is PAN treatment without compound. The negative control is 100% DMSO diluted to the same factor as the compounds without PAN.
The plates are incubated at 37° C., 5% CO2 for 48 to 72 hours depending on the PAN concentration (i.e. lower concentrations of PAN required a longer incubation period). The medium is aspirated after plates are spun at 2400 rpm for 10 min at ambient temperature. 100 μl of 1×DPBS (without CaCl2, without MgCl2) is added to each well.
The MTS (Promega) is prepared under low lighting conditions by dissolving 4.0 g of MTS in 1.8 I of 1×DPBS. The solution is allowed to sit for 10 minutes and pH adjusted to 6.2. […] Absorbance is measured at 490 nm wavelength with a microplate reader.

[3] = tested on: IFNg on ConA 1° splenocytes; test: Inhibition of IFNγ release from ConA-stimulated splenocytes; format: cell-based, mouse; details: ConA-stimulated Balb/c splenocytes, 18-24 hours, ELISA
Description: T-lymphocytes obtained from mice spleens are a suitable sample for studying the activation properties of this immunologically important cell type. T-lymphocytes are the main regulators for inflammation. Concanavalin A (ConA) is an effective activator of T-lymphocytes, which allows T-lymphocytes to proliferate and produce inflammatory cytokines, such as Interferon (IFNγ) and regulatory cytokines, such as Interleukin 10 (IL-10).
The spleens were transferred onto mesh screen containing 10 ml of ice cold RPMI-5 (1× sodium pyruvate and 5% FBS) and gently ground with a pestle. The cell suspensions were centrifuged at 1500 rpm for 6 minutes at 4° C. […] The supernatant was discarded and the pellet washed two additional times. The cells were resuspended in RPMI-5 and the cell suspensions combined. The cells were counted and their concentration was adjusted to 2.8×10^6 cells/ml using RPMI-5.
as §1
At the completion of the stimulation described above, the plates were spun at 2000 rpm for 10 minutes. The supernatants (100 μl) from each well were transferred to fresh plates for INFγ analysis by ELISA.
INFγ levels in the supernatants from stimulated lymphocytes were determined with PharMingen's OptEIA™ INFγ Kit (PharMingen) according to manufacturer's directions. The data, shown in Table 2 infra, is represented as a percentage of INFγ inhibition by the following formula: INFγ inhibition=100−(AVG treatment/AVG DMSO control)*100.

[4] = tested on: TNFa on macrophages; test: Inhibition of TNFα release from stimulated macrophages; format: cell-based, mouse; details: Mus musculus, Macrophage; LPS and IFN-γ stimulated primary macrophages, ELISA
Description: Peritoneal exudate macrophages were isolated by peritoneal lavage with ice-cold sterile physiological saline 24 hours after intraperitoneal injection of BALB/c mice with 0.5 mL of sterile Zymosan A (1 mg/0.5 mL 0.9% saline). […] Murine primary macrophage will get activated following incubation with LPS in the presence of sub-optimal doses of IFN-γ. […] TNF-αlevels in the supernatants from stimulated macrophages were determined with PharMingen's OptEIA TNF-α kit (PharMingen). The experiment was performed at room temperature, about 21° C., unless otherwise stated. The microwells (F8 MaxiSorp™ Loose/Nunc-Immuno Module; Gibco/BRL) were coated with 100 μl/well of capture antibody (at the recommended concentration) and incubated overnight at 4° C. […] Next, the solution was removed and the plates were washed 5× with wash buffer. The TNF-αanalysis was initiated by adding duplicate samples (100 μl/well) or standards (100 μl/well) in diluent buffer which were incubated for 2 h. The solution was removed and the plates washed 5× with wash buffer. Enzyme reagent (100 μl) containing biotinylated mouse TNF-αmonoclonal antibody and avidin-horseradish peroxidase conjugate (at concentrations recommended by the manufacturer) was added to each well. The plate was incubated for 1 hour, the solution removed, and the plates washed 7× with wash buffer. […] Colour development was terminated by adding 50 μl of 2N H2SO4. […] Peritoneal exudate macrophages were isolated by peritoneal lavage with ice-cold sterile physiological saline 24 hours after intraperitoneal injection of BALB/c mice with 0.3 ml of sterile zymosan A (1 mg/0.5 mL 0.9% saline). […] All treatments were replicated six times. Cells were incubated for an additional 24 hours, and cell free culture supernatants from each well were collected for NO and cytokine determination. The remaining cells were stained with crystal violet to determine effect of the compound on cell survival.

[5] = tested on: macrophages; test: Survival of macrophages; format: cell-based, mouse; details: Mus musculus, Macrophage; stimulated primary macrophages
Description: Peritoneal exudate macrophages were isolated by peritoneal lavage with ice-cold sterile physiological saline 24 hours after intraperitoneal injection of BALB/c mice with 0.3 ml of sterile zymosan A (1 mg/0.5 mL 0.9% saline). […] 1.5×10^5 cells/well were seeded in 96-well plates and followed by 3 hour incubation at 37° C. with 5% CO2 (macrophages were allowed to attach) cells were stimulated with LPS ([…]/mL) and IFN-γ (100 U/mL) in the absence or presence of the test compounds. All treatments were replicated six times. Cells were incubated for an additional 24 hours, and cell free culture supernatants from each well were collected for NO and cytokine determination. The remaining cells were stained with crystal violet to determine effect of the compound on cell survival.

[6] = tested on: MCP1 on HUVECS; test: Inhibition of MCP-1 release from TNFα-stimulated HUVEC; format: cell-based, human; details: Homo sapiens, 18-24 hours, ELISA
Excerpt: The activation of endothelial cells by pro-inflammatory cytokine TNF-α leads to the production of several chemokines. The release of these chemokines play an important role in leukocyte trafficking and extravasation of leukocytes into tissue during inflammation. MCP-1 and IL-8 are among the chemokines released upon stimulation of human endothelial cells (HUVECs) by TNFα, and contribute to migration of monocytes to the sites of inflammation. Cells should not be passaged more than 6 times.
Cells were maintained and grown in tissue culture flasks (T75) in endothelial cell growth medium (EGM, Clonetics) containing 5 additional supplements (EGM-5) in medium [human recombinant endothelial growth factor (hEGF), hydrocortisone (HC), bovine brain extract (BBE), fetal bovine serum (FBS) and Gentamycin (GA)] incubated at 37° C., 5% CO2. The cells should be propagated a maximum of 20 passages.
The plates were incubated overnight at 37° C., 5% CO2 to enable the cells to attach and grow.
The working concentration of TNFα was 1,000 pg/ml. A twenty times working concentration of TNFα was 20,000 pg/ml was prepared using EGM-5. The test compounds, DMSO negative vehicle control and staurosporine positive control were diluted 20× using EGM-5. Ten μL each of the compounds, DMSO and staurosporine were combined with 180 μl of medium containing HUVEC cells. Immediately following the addition of the compounds, 10 μl of […] TNFα was added to the wells. Medium without TNFα was added to the control wells. […] The plates were incubated at 37° C. in 5% CO2 in humidified conditions overnight (18-24 hours) for TNFα.
At the completion of the stimulation, the plates were spun at 2000 rpm for 10 minutes. The supernatants from each well were transferred to fresh plates for MCP1 analysis by ELISA.
[…] were determined with PharMingen's OptEIA™ MCP1 Kit (PharMingen) according to manufacturer's instructions.
The data is represented as a percentage of MCP1 inhibition by the following formula: % MCP1 inhibition=100−(AVG treatment/AVG DMSO control)*100.

Compound: Cc1n[nH]c(N)c1-c1nc2cc(F)c(S(=O)(=O)NCCO)cc2s1 [2-(5-Amino-3-methyl-1H-pyrazol-4-yl)-5-fluorobenzothiazole-6-sulfonic acid (2-hydroxy-ethyl)-amide]
IC50 ([1]; Mus musculus, Splenocyte): > 25 µM
% Survival ([2]; @ 25 μM): 30%

Compound: Nc1[nH]nc(N2CCNCC2)c1-c1nc2ccccc2s1 [4-Benzothiazol-2-yl-5-piperazin-1-yl-2H-pyrazol-3-ylamine]
IC50 [4]: > 25 µM
IC50 [5]: > 25 µM

Compound: CNS(=O)(=O)c1ccc2nc(-c3c(N)n[nH]c3C)sc2c1 [2-(3-Amino-5-methyl-1H-pyrazol-4-yl)benzothiazole-6-sulfonic acid methylamide]
IC50 [2]: 12.5 µM

Compound: Cc1n[nH]c(N)c1-c1nc2ccc(CN(C)C)cc2s1 [4-(6-Dimethylaminomethylbenzothiazol-2-yl)-5-methyl-2H-pyrazol-3-ylamine]
IC50 [2]: 12.5 µM

Compound: Cc1n[nH]c(N)c1-c1nc2cc(F)c(S(N)(=O)=O)cc2s1 [2-(5-Amino-3-methyl-1H-pyrazol-4-yl)-5-fluoro-benzothiazole-6-sulfonic acid amide]
IC50 [4]: 0.9 µM
% Survival ([2]; @ 12.5 μM): 30%

Compound: COc1cc2sc(-c3c(-c4ccco4)n[nH]c3N)nc2cc1F [4-(5-Fluoro-6-methoxybenzothiazol-2-yl)-5-furan-2-yl-2H-pyrazol-3-ylamine]
IC50 [2]: 2.5 µM

Compound: CNS(=O)(=O)c1cc2sc(-c3c(N)n[nH]c3C)nc2cc1F [2-(3-Amino-5-methyl-1H-pyrazol-4-yl)-5-fluorobenzothiazole-6-sulfonic acid methylamide]
IC50 ([3]; Mus musculus, Splenocyte): 0.368 µM

Compound: Cc1n[nH]cc1-c1nc2ccccc2s1 [2-(3-Methyl-1H-pyrazol-4-yl)-benzothiazole]
IC50 [4]: > 25 µM
IC50 [5]: > 25 µM
IC50 [6]: > 25 µM

Compound: Nc1n[nH]c(CCCO)c1-c1nc2ccccc2s1 [3-(5-Amino-4-benzothiazol-2-yl-2H-pyrazol-3-yl)-propan-1-ol]
IC50 [4]: > 25 µM
IC50 [6]: ~25 µM

Compound: Nc1n[nH]cc1-c1nc2ccc(F)cc2s1 [4-(6-Fluorobenzothiazol-2-yl)-1H-pyrazol-3-ylamine]
IC50 [4]: > 25 µM
IC50 [5]: > 25 µM
IC50 [6]: ~25 µM

Now from value to compound, other results behind:

IC50 [3]: 10.2 µM
Compound: COc1cc2sc(-c3c(NCCCN(C)C)n[nH]c3N)nc2cc1F [N^3-(3-Dimethylaminopropyl)-4-(5-fluoro-6-methoxybenzothiazole)-1H-pyrazole-3,5-diamine]
IC50 [1]: ~25 µM

IC50 ([3]; Mus musculus, Splenocyte): 0.5 µM
Compound: CNCc1ccc2nc(-c3c(C)n[nH]c3N)sc2c1 [5-Methyl-4-(6-methylaminomethylbenzothiazol-2-yl)-2H-pyrazol-3-ylamine]
IC50 ([1]; Mus musculus, Splenocyte): 0.9 µM

IC50 ([3]; Mus musculus, Splenocyte): > 25 µM
Compound: Cc1cc2sc(-c3cn[nH]c3N)nc2cc1F [4-(5-Fluoro-6-methylbenzothiazol-2-yl)-2H-pyrazol-3-ylamine]
IC50 ([1]; Mus musculus, Splenocyte): > 25 µM

IC50 [3]: 5.9 µM
Compound: COc1ccc2nc(-c3c(N4CCNCC4)n[nH]c3N)sc2c1 [4-(6-Methoxybenzothiazole)-5-piperizin-1-yl-2H-pyrazol-3-ylamine]
IC50 [1]: 20.5 µM

IC50 [4]: > 25 µM
Compound: COc1cc2sc(-c3c(-c4ccncc4)n[nH]c3N)nc2cc1F [4-(5-Fluoro-6-methoxybenzothiazol-2-yl)-5-pyridin-4-yl-2H-pyrazol-3-ylamine]
IC50 ([1]; Mus musculus, Splenocyte): > 25 µM
IC50 [5]: > 25 µM
IC50 [6]: > 25 µM
